US11220496B2, “Compounds and method for treating autoimmune diseases” (Rigel Pharmaceuticals, Inc., priority 2013, dated 2022)
Where a name gives a salt, the structure may show the parent alone.

Assay: Human primary T-cell proliferation stimulated by IL-2 (CellTiter-Glo)
Type: cell-based
Settings: primary human T-cells, IL-2 stimulated proliferation, 72 hours, ATP readout; read-out: Activity (IC50, inhibition of JAK3 activity)
Excerpt: One means of assaying for such inhibition is detection of the effect of the 2,4-substituted pyrimidinediamine compounds on the upregulation of downstream gene products. For example, the activity of the disclosed compounds may be characterized by assaying the effect of the 2,4-substituted pyrimidinediamine compounds described herein on the proliferative response of primary human T-cells. In this assay, primary human T-cells derived from peripheral blood and pre-activated through stimulation of the T-cell receptor and CD28, proliferate in culture in response to the cytokine Interleukin-2 (IL-2). This proliferative response is dependent on the activation of JAK1 and JAK3 tyrosine kinases, which phosphorylate and activate the transcription factor Stat-5. The primary human T-cells are incubated with the 2,4-substituted pyrimidinediamine compounds in the presence of IL-2 for 72 hours and at the assay endpoint intracellular ATP concentrations are measured to assess cell viability. A reduction in cell proliferation compared to control conditions is indicative of inhibition of the JAK kinase pathway.
Primary human T-cells derived from peripheral blood and pre-activated through stimulation of the T-cell receptor and CD28, proliferate in vitro in response to the cytokine Interleukin-2 (IL-2). This proliferative response is dependent on the activation of JAK-1 and JAK-3 tyrosine kinases, which phosphorylate and activate the transcription factor Stat-5.
Human primary T-cells were prepared as follows. Whole blood was obtained from a healthy volunteer, mixed 1:1 with PBS, layered on to Ficoll Hypaque (Amersham Pharmacia Biotech, Piscataway, N.J., Catalog #17-1440-03) in 2:1 blood/PBS:ficoll ratio and centrifuged for 30 min at 4° C. at 1750 rpm. The lymphocytes at the serum: ficoll interface were recovered and washed twice with 5 volumes of PBS. The cells were resuspended in Yssel's medium (Gemini Bio-products, Woodland, Calif., Catalog #400-103) containing 40 U/mL recombinant IL2 (R and D Systems, Minneapolis, Minn., Catalog #202-IL (20 μg)) and seeded into a flask pre-coated with 1 μg/mL anti-CD3 (BD Pharmingen, San Diego, Calif., Catalog #555336) and 5 μg/mL anti-CD28 (Immunotech, Beckman Coulter of Brea Calif., Catalog #IM1376). The primary T-cells were stimulated for 3-4 days, then transferred to a fresh flask and maintained in RPMI with 10% FBS and 40 U/mL IL-2.
The day prior to the assay set up, primary T-cells were centrifuged and resuspended in fresh RPMI with 10% FBS but without IL-2 and starved overnight. For the assay, the primary T-cells were centrifuged and resuspended Yssel's medium at 2×10^6 cells/mL. 50 μL of cell suspension containing 80 U/mL IL-2 was added to each well of a flat bottom 96 well black plate. For the unstimulated control, IL-2 was omitted from the last column on the plate. Compounds were serially diluted in dimethyl sulfoxide (DMSO, 99.7% pure, cell culture tested, Sigma-Aldrich, St. Louis, Mo., Catalog No. D2650) from 5 mM in 3-fold dilutions, and then diluted 1:250 in Yssel's medium. 50 μL of 2× compound was added per well in duplicate and the cells were allowed to proliferate for 72 hours at 37° C.
Proliferation was measured using CellTiter-Glo® Luminescent Cell Viability Assay (Promega), which determines the number of viable cells in culture based on quantitation of the ATP present, as an indicator of metabolically active cells. The substrate was thawed and allowed to come to ambient temperature. After mixing the Cell Titer-Glo reagent and diluent together, 100 μL was added to each well. The plates were mixed on an orbital shaker for two minutes to induce lysis and incubated at ambient temperature for an additional ten minutes to allow the signal to equilibrate. Detection was performed using a Wallac Victor2 1420 multilabel counter purchased from Perkin Elmer, Shelton, Conn.

| SMILES | IC50 [nM] |
| --- | --- |
| COc1cc(Nc2ncc(C)c(Nc3ccc4oc(=O)[nH]c4c3)n2)cc(C)c1F [Compound I-432, 5-(2-(4-fluoro-3-methoxy-5-methylphenylamino)-5-methylpyrimidin-4-ylamino)benzo[d]oxazol-2(3H)-one] | < 500 |
| Cc1cnc(Nc2ccc(C(=O)NC3CCC3)cc2)nc1Nc1ccc2oc(=O)[nH]c2c1 [Compound A5, N-cyclobutyl-4-[5-methyl-4-(2-oxo-2,3-dihydro-benzooxazol-5-ylamino)-pyrimidin-2-ylamino]-benzamide] | < 500 |
| Cc1cnc(Nc2ccc(C(N)=O)cc2)nc1Nc1ccc2oc(=O)[nH]c2c1 [Compound A3, N4-(benzo[d]oxazol-2(3H)-on-5-yl)-N2-(4-aminocarbonylphenyl)-5-methylpyrimidine-2,4-diamine] | < 500 |
| Cc1cnc(Nc2ccc3cnoc3c2)nc1Nc1ccc2oc(=O)[nH]c2c1 [Compound A12, 5-(2-(benzo[d]isoxazol-6-ylamino)-5-methylpyrimidin-4-ylamino)benzo[d]oxazol-2(3H)-one] | < 500 |
| Cc1ccc(Nc2ncc(C)c(Nc3ccc4oc(=O)[nH]c4c3)n2)cc1F [Compound A8, N2-(3-fluoro-4-methyl)phenyl-5-methyl-N4-(2-oxo-2,3-dihydro-1,3-benzoxazol-5-yl)-2,4-pyrimidinediamine] | < 500 |
| Cc1cc(CF)cc(Nc2ncc(C)c(Nc3ccc4oc(=O)[nH]c4c3)n2)c1 [Compound A7, 5-(2-(3-(fluoromethyl)-5-methylphenylamino)-5-methylpyrimidin-4-ylamino)benzo[d]oxazol-2(3H)-one] | < 500 |
| Cc1ccc(Nc2ncc(C)c(Nc3ccc4oc(=O)[nH]c4c3)n2)cc1C [Compound A10, 5-[2-(3,4-dimethyl-phenylamino)-5-methyl-pyrimidin-4-ylamino]-3H-benzooxazol-2-one] | < 500 |
| Cc1cnc(Nc2cc(C)c(C)c(C)c2)nc1Nc1ccc2oc(=O)n(COP(=O)(O)O)c2c1 [Compound A17, 5-methyl-N4-[3-(phosphonooxy)methyl-2-oxo-2,3-dihydro-1,3-benzoxazol-5-yl]-N2-(3,4,5-trimethyl)phenyl-2,4-pyrimidinediamine bis-sodium salt] | 500 to 5000 |
| COc1cc(Nc2ncc(C)c(Nc3ccc4oc(=O)[nH]c4c3)n2)cc(Cl)c1OC [Compound A11, 5-(2-(3-chloro-4,5-dimethoxyphenylamino)-5-methylpyrimidin-4-ylamino)benzo[d]oxazol-2(3H)-one] | < 500 |
| COc1cc(Nc2ncc(C)c(Nc3ccc4oc(=O)n(COP(=O)(O)O)c4c3)n2)cc(C(F)(F)F)c1 [Compound A15, N2-(3-methoxy-5-trifluoromethyl)phenyl-5-methyl-N4-[3-(phosphonooxy)methyl-2-oxo-2,3-dihydro-1,3-benzoxazol-5-yl]-2,4-pyrimidinediamine bis-sodium salt] | 500 to 5000 |
| Cc1cnc(Nc2cc(C)c(F)c(C)c2)nc1Nc1ccc2oc(=O)[nH]c2c1 [Compound A14, N2-(3,5-dimethyl-4-fluoro)phenyl-5-methyl-N4-(2-oxo-2,3-dihydro-1,3-benzoxazol-5-yl)-2,4-pyrimidinediamine] | < 500 |
| Cc1cnc(Nc2cc(C)c(C)c(C)c2)nc1Nc1ccc2oc(=O)[nH]c2c1 [Compound A1, N2-(3,4,5-trimethyl)phenyl-5-methyl-N4-(2-oxo-2,3-dihydro-1,3-benzoxazol-5-yl)-2,4-pyrimidinediamine] | < 500 |
| COc1cc(Nc2ncc(C)c(Nc3ccc4oc(=O)n(COP(=O)(O)O)c4c3)n2)cc(C)c1F [Compound A16, Sodium (5-(2-(4-fluoro-3-methoxy-5-methylphenylamino)-5-methylpyrimidin-4-ylamino)-2-oxobenzo[d]oxazol-3(2H)-yl)methyl phosphate] | 500 to 5000 |
| Cc1cnc(Nc2ccc(C(=O)Nc3ccccc3)cc2)nc1Nc1ccc2oc(=O)[nH]c2c1 [Compound A2, 4-[5-methyl-4-(2-oxo-2,3-dihydro-benzoxazol-5-ylamino)-pyrimidin-2-ylamino]-N-phenyl-benzamide] | < 500 |
| Cc1cnc(Nc2cc(C)c(F)c(C)c2)nc1Nc1ccc2oc(=O)n(COP(=O)(O)O)c2c1 [Compound A18, N2-(3,5-dimethyl-4-fluoro)phenyl-5-methyl-N4-[3-(phosphonooxy)methyl-2-oxo-2,3-dihydro-1,3-benzoxazol-5-yl]-2,4-pyrimidinediamine bis-sodium salt] | 500 to 5000 |
